This is an account of results in patent publication US12318365B2, “Inhibition of dipeptide repeat proteins” (ALS Therapy Development Institute, priority 2019, dated 2025).

In one series the test system is NSC-34 cells. Briefly: LDH assay (cytotoxicity) in NSC-34 cells. The format is cell-based. The conditions noted are these: for toxicity independently of GR and PR treatment: no DRP.
Text: LDH Assay: The LDH assay is a colorimetric assay that measures cell toxicity and death. […] When cells lose membrane integrity, an enzyme found in living cells called lactate dehydrogenase (LDH) is released into the solution surrounding the dying cell. A form of programmed cell death, apoptosis, as well as other forms of cell death also ultimately lead to a cell's membrane being destroyed, resulting in a large release of LDH into the extracellular space. Thus, LDH is an excellent marker not only for necrosis, but for all instances of cell death. In an LDH assay, a sample of the solution surrounding the cell is isolated, and transferred to a plate containing an LDH reaction mixture. This reaction mixture contains a tetrazolium salt intermediate and other reaction constituents that, when exposed to LDH, convert the tetrazolium salt into a colored Formazan product. This Formazan product can be quantified spectrophotometrically. Greater absorbance readings correspond to more cell death.
One row on the top and bottom of the plate, and two columns on either side of the plate, were left without cells and contained culture medium only to minimize experimental well volume evaporation. After plating, cells were incubated for 24 h at 37° C., 5% CO2 prior to DRP and/or PRMT inhibitor addition. At time of DRP/PRMT inhibitor addition, desired doses of DRP for challenge and inhibitor for treatment were achieved by diluting aliquots of each stock in warm culture medium. During experiments where both PRMT inhibitors and DRPs were used, PRMT inhibitors were always applied to wells first, and followed by DRP application. […] Inhibitor toxicity controls were included as wells treated with the desired doses of drug for the experiment, but no DRP. DRP toxicity controls were included as wells only treated with the doses of DRP used for challenge. Once dosed, plates were incubated for 24 h at 37° C., 5% CO2 prior to running the WST-1 or LDH assay endpoints. Additional controls needed for each endpoint are specified in the “WST-1 Assay” and “LDH Assay” sections of these methods.
LDH Assay: Cells were plated and prepared using the steps described in the “Plating NSC-34 and Dosing with DRPs and PRMT Inhibitors” section of these methods. Other controls for this experiment included several sets of wells with only cells in culture medium (one triplicate designated for “untreated,” one triplicate designated for “lysed” positive control), and wells with culture medium only. An additional control added only to the transfer plate at time of testing was 5 μL LDH only. Testing was performed using colorimetric LDH-Cytotoxicity Assay Kit II (Abcam, Cambridge, MA, USA) per manufacturer's instructions. Final read at 450 nm was performed on a SpectraMax M3 Microplate Reader (Molecular Devices, San Jose, CA, USA). Data analysis included calculation of % LDH release using the following equation: […]
Experiments included three replicates per condition. Each experiment was repeated twice (executed three times total).
(§1) The following conditions were plated in triplicate.
Plates were incubated for 24 h at 37° C., 5% CO2. Cells were tested and data were analyzed by LDH assay.
Cells were plated in culture medium in 2 96-well plates at a density of 3.7×10^4 cells per well, and incubated overnight at 37° C., 5% CO2.
as §1
Cells were plated in culture medium in 2 96-well plates at a density of 3.7×10^4 cells per well, and incubated overnight at 37° C., 5% CO2. […]
The following conditions were plated in triplicate. […]

For series [1], the system named is asymmetrical arginine methylation of NSC-34 cells. Briefly: Cellular asymmetric arginine methylation (800/700 fluorescence readout) in NSC-34 cells. The conditions noted are these: 24 hour treatment. The series is classed as cell-based, Mouse. The protocol:
On Day 0, NSC-34 Cells were plated in 48 wells of a 96 well plate, and CHO cells were plated in the other 48 wells of the same 96-well plate. NSC-34 cells were plated in DMEM/High glucose media. CHO cells were plated in Ham's F-12K (Kaighn's) Medium. Both cell lines were incubated overnight to reach approximately 50% confluency.
On Day 1, 24 wells of the NSC-34 cells and 24 wells of the CHO cells were treated with the following concentrations of MS023: 1 μM, 3 μM, 6 μM, 10 μM, 30 μM, and 60 μM. The cells were then incubated overnight.
On Day 2, 18 wells of the untreated NSC-34 cells and 18 wells of the untreated CHO cells were treated with the same concentrations of MS023 as those on Day 1. This left 6 wells of each cell line that never received MS023. Once MS023 was added, the cells were incubated overnight.
On Day 3, all media in the 96-well plate was removed and the cells were fixed with 3.7% Paraformaldehyde (PFA). Cells were then washed and permeabilized with 1×PBS/0.1% Triton X-100.
After removing the PBS/Triton wash, Odyssey Blocking Buffer (LI-COR, 927-40100) was applied to all wells and the plate sat at room temperature with moderate shaking for 90 minutes. After 90 minutes, the blocking buffer was removed and the cells were treated with a 1:500 dilution of the Anti-Asymmetric Di-Methyl Arginine Motif primary antibody (Cell Signaling Technology, #13522). Incubation with the primary antibody continued overnight at 4 degrees Celsius with no shaking.
On Day 4, the primary antibody solution was removed from the plate, and the cells were washed with 1×PBS/0.1% Tween 20. After washing, cells were given a secondary antibody mixture containing a 1:1000 dilution of IRDye 800 CW Anti-Rabbit antibody (LI-COR, 926-32211) and a 1:500 dilution of Cell Tag 700 Stain (LI-COR, 926-41090). The secondary antibody mixture remained on cells for 60 minutes with gentle shaking and protected from light.
(§2) After 60 minutes, the secondary antibody mixture was removed and the cells were again washed with 1×PBS/0.1% Tween 20. All wash buffer was then removed, and the plate was gently patted dry to remove excess solution. The plate was then read on the LI-COR Odyssey Classic Imaging System which provides results based on fluorescence. In this experiment, fluorescence occurred as a result of cellular, asymmetric arginine methylation. MS023 was given to cells for either 24 or 48 hours, with expectation for it to reduce cellular, asymmetric arginine methylation. Cell number per well was accounted for using the Cell Tag 700 Stain, which fluorescently labels total protein levels in a cell. To this effect, fluorescence from asymmetrical arginine methylation per well (800) was divided by fluorescence from the total protein level per well (700) to produce an outcome of 800/700.
On Day 1, 24 wells of the NSC-34 cells and 24 wells of the CHO cells were treated with the following concentrations of MS049: 0.2 μM, 1 μM, 2 μM, 10 μM, 20 μM, and 100 μM. The cells were then incubated overnight.
On Day 2, 18 wells of the untreated NSC-34 cells and 18 wells of the untreated CHO cells were treated with the same concentrations of MS049 as those on Day 1. This left 6 wells of each cell line that never received MS049. Once MS049 was added, the cells were incubated overnight.
as §2, with “MS049” for “MS023”, “To this effect, fluorescence from asymmetrical arginine methylation per well (800) was divided by fluorescence from the total protein level per well (700) to produce an outcome of 800/700.” left out

“Also recorded” adds a separate entry of the source.

Regarding `CNCCN1CCC(OCc2ccccc2)CC1` [MS049], in the series on NSC-34 cells (3 μM GR15, 24 h, dose range of the example), the “dose dependence of abrogation of GR15-induced cytotoxicity” value is recorded as “dose-dependently abrogated”. The “abrogation of GR-induced toxicity” value in the series with NSC-34 cells (3 μM GR15, 24 h, doses 0.2, 1, 2, 20 and 100 μM) is “partially abrogated”; in the series on NSC-34 cells (3 μM GR15, 24 h, doses 2 and 10 μM) it was “completely abrogated”. Further, the “abrogation of GR15-induced cytotoxicity” value with NSC-34 cells (3 μM GR15, doses 1 and 20 μM) was “partially abrogated”. Also, the “dose dependence of abrogation of PR15-induced cytotoxicity” value in the series with NSC-34 cells (3 μM PR15, 24 h, dose range of the example) is recorded as “dose-dependently abrogated”. Also, the “abrogation of PR-induced toxicity” value in the series on NSC-34 cells (3 μM PR15, 24 h, doses 0.2, 1, 2, 20 and 100 μM) is recorded as “partially abrogated”; in the series on NSC-34 cells (3 μM PR15, 24 h, doses 2 and 10 μM), “completely abrogated”. In the series on NSC-34 cells (3 μM PR15, doses 1 and 20 μM), the “abrogation of PR15-induced cytotoxicity” value is “partially abrogated”. Moreover, the “toxicity independently of GR and PR treatment” value in the series with NSC-34 cells (doses 100 and 20 μM) was “did cause significant toxicity; also recorded: did cause significant cytotoxicity”; with NSC-34 cells (other doses tested (0.2, 1, 2, 10 μM)) it was “not at other doses tested”. The “decrease of asymmetrical arginine methylation” value was “approximately 17%” in series [1] (1 μM, vs untreated cells) and roughly 39% in series [1] (100 μM).
